Laboratory results as given in patent US5814600A, “Method and composition for treatment of insulin requiring mammals” (Amylin Pharmaceuticals Inc., priority 1994, dated 1998).
Entries after “also recorded” stand apart in the source; their conditions may differ. Where two headings read alike, the source gives them in different places.

How the values were obtained:
rat soleus muscle = type: cell-based
Experimental: Male Harlan Sprague Dawley rats of approximately 200 g mass were used in order to maintain soleus muscle mass less than 40 mg. The animals were fasted for 4 hours prior to sacrifice by decapitation. The skin was stripped from the lower limb which was then pinned out on cork board. The tendo achilles was cut just above os […]. gastrocnemius reflected out from the posterior aspect of the tibia. M. soleus, a small […], 0.55 mm thick flat muscle on the bone surface of m. gastrocnemius was then stripped clear and the perimysium cleaned off using fine scissors and forceps. M. soleus was then split into equal parts using a blade passed antero-posteriorly through the belly of the muscle to obtain a total of 4 muscle strips from each animal. After dissecting the muscle from the animal, it was kept for a short period in physiological saline. The muscle was not held under tension, as reported in other methodologies since in our hands this had no demonstrable effect on the insulin-sensitivity of radioglucose incorporation into glycogen. Muscles were added to 50 mL Erlenmeyer flasks containing 10 mL of a pregassed Krebs-Ringer bicarbonate buffer containing (mM) NaCl 118.5; KCl 5.94; CaCl2 2.54; MgSO4 1.19; KH2 PO4 1.19; NaHCO3 25; glucose 5.5; and recombinant human insulin (Humulin-R, Eli Lilly, Ind.) and either synthetic rat (Bachem, Torrance, Calif. Lot# ZG485) or synthetic human amylin (Bachem, Torrance, Calif. Lot# ZH144) as detailed below. Methods used to determine the nature and purity of rat and human amylin included quantitative amino acid analysis, gas phase amino acid sequencing, reverse phase HPLC and fast-atom-bombardment mass spectrometry. […] Incorporation of mercury into rat amylin may be a feature of many commercially available batches that have already been used in published studies. Since the peptide was bioactive, its action in muscle was expected to at least qualitatively mimic that of true rat amylin. The mercuric method of cyclization was not used in the synthesis of human amylin, which is found by electrospray ionization mass spectrometry and atomic absorption spectroscopy to be mercury-free. Muscles were assigned to different flasks so that the four muscle pieces from each animal were evenly distributed among the different assay conditions. The incubation media were gassed by gently blowing carbogen (95% O2, 5% CO2) over the surface while it was continuously agitated at 37° C. in an oscillating water bath. pH of gassed media at 37° C. was verified as being between 7.1 and 7.4. After a half-hour preincubation, 0.5 μCi of [U-^14 C]-glucose was added to each flask for a further 60 minutes. Each muscle piece was then rapidly removed, trimmed of tendons, blotted, frozen in liquid N2, weighed and then stored at […] for subsequent determination of ^14 C-glycogen. The incubation medium was also frozen for subsequent analysis. The concentration of human amylin present in the medium at the end of the incubation was determined by radioimmunoassay in surfactant-containing buffer. For both human and rat amylin, the actual mass added to the incubation medium was determined by quantitative amino-acid analysis. Each frozen muscle specimen was placed in a vial with 1 mL 60% potassium hydroxide (wt/vol) and digested at 70° C. for 45 minutes under intermittent vigorous agitation. Dissolved glycogen was precipitated onto the walls of the vial by addition of 3 mL absolute ethanol and overnight cooling at -20° C. After centrifugation for 30 minutes at 2000 x-- g, the supernatant was gently aspirated, the glycogen was again washed with ethanol and centrifuged, the ethanol aspirated and the precipitate dried under vacuum. It was important to evaporate all ethanol to avoid quenching during scintillation counting. The remaining glycogen was redissolved in 1 mL water and 4 mL scintillation fluid and counted for ^14 C. […]

[1] = tested on: streptozotocin-diabetic rats; experiment: Liver glycogen in insulin-treated streptozotocin diabetic rats, daily s.c. amylin replacement; type: in vivo, rat
Experimental: There were 68 male Harlan Sprague Dawley rats (mass 301±3 g) in 8 treatment groups. Animals were housed at 22.7±0.8° C. in a 12:12 hour light:dark cycle (experiments being performed during the light cycle) and fed and watered ad libitum (Diet LM-485, Teklad, Madison, Wis.). The rats were sacrificed for harvesting of livers 4 to 5 hours into the light cycle.
Animals were injected with streptozotocin (Sigma Chemical Company, St Louis, Mo.: Sigma 50130) dissolved in water in a dose of 65 mg/kg into the lateral tail vein. […] Maintaining diabetic rats in this metabolic state optimizes survival. Following one week of established diabetes, animals received once daily s.c. injections of amylin vehicle (water for injection) for 5 days given at the time of the insulin injection.
These animals were treated identically to those in group 1 except that the daily subcutaneous injection contained 3 μg (n=5); 10 μg (n=12); 30 μg (n=5); 100 μg (n=5) or 300 μg (n=5) of rat amylin (Bachem lot# WG485^2/). The bioactivity of the peptide used in these experiments was first verified by bioassay, using inhibition of insulin-stimulated radioglucose incorporation into glycogen in the isolated stripped rat soleus muscle. […] The insulin dose in each of the groups of diabetic animals averaged 1.67 U/animal/day. There were no other observable differences in the required management of the different groups.
These animals were derived from the same stock and housed under the same conditions for the same time as those in groups 1-6, but were given no injections. 24 hours after the fifth daily injection of amylin or water (or an equivalent time after admission to the vivarium in the case of group 7 rats), the non-fasted rats were killed by decapitation and the livers immediately removed and frozen in liquid N2, weighed and stored for subsequent determination of glycogen concentration.
Whole livers were powdered while frozen. Approximately 200 mg of powder was further homogenized in 1.0 mL of 0.6M perchloric acid to denature enzymes. 200 μL of the homogenate was neutralized with 0.5 volumes of 1.0M KHCO3 in either of two acetate buffer solutions, one containing 2.0 mL of 200 mM acetate (pH4.8), the other containing the same but with 18.5 U/mL of amyloglucosidase (EC5 3.2.1.3, from Aspergillus nicer, Sigma A3423, Sigma Chemical Company, St Louis, Mo.) added. Following at least 20 minutes incubation at 23° C., the supernatants were assayed for glucose in an analyzer using D-glucose oxidase immobilized enzyme chemistry (Analyzer model 2300-STAT, YSI, Yellow Springs, Ohio). Purified rabbit liver glycogen (Sigma G8876) used as a standard indicated 98±4% recovery of dissolved glycogen and linearity within the range of observed liver glycogen concentrations (r=0.9994). All reagents were of analytical grade or better.
Statistical comparisons were by Student's t-test routines contained in the SYSTAT system (Systat, Evanston, Ill.). All results are reported as means ± standard error of the mean.

liver glucose output = conditions: rats; Molina et al. 1990, Koopmans et al. 1990; cited from earlier work

With `CC(C)C[C@H](NC(=O)[C@H](CC(N)=O)NC(=O)[C@H](CC(N)=O)NC(=O)[C@H](CO)NC(=O)[C@H](CO)NC(=O)[C@H](CCCNC(=N)N)NC(=O)[C@@H](NC(=O)[C@H](CC(C)C)NC(=O)[C@H](Cc1ccccc1)NC(=O)[C@H](CC(N)=O)NC(=O)[C@H](C)NC(=O)[C@H](CC(C)C)NC(=O)[C@H](CCCNC(=N)N)NC(=O)[C@H](CCC(N)=O)NC(=O)[C@@H](NC(=O)[C@H](C)NC(=O)[C@@H]1CSSC[C@H](NC(=O)[C@@H](N)CCCCN)C(=O)N[C@@H](CC(N)=O)C(=O)N[C@@H]([C@@H](C)O)C(=O)N[C@@H](C)C(=O)N[C@@H]([C@@H](C)O)C(=O)N1)[C@@H](C)O)C(C)C)C(=O)NCC(=O)N1CCC[C@H]1C(=O)N[C@H](C(=O)N[C@@H](CC(C)C)C(=O)N1CCC[C@H]1C(=O)N1CCC[C@H]1C(=O)N[C@H](C(=O)N[C@@H](CC(N)=O)C(=O)N[C@H](C(=O)NCC(=O)N[C@@H](CO)C(=O)N[C@@H](CC(N)=O)C(=O)N[C@H](C(=O)N[C@@H](Cc1ccc(O)cc1)C(N)=O)[C@@H](C)O)C(C)C)[C@@H](C)O)C(C)C` [rat amylin] the EC50 (rat soleus muscle; 4 h) was 6.2 nM, the “Amylin dose response: Maximal response, Mean ± SEM” value (shortened to “Amylin dose response … Mean ± SEM”) (rat soleus muscle; [insulin] 0 nM (nominal)) was 0.85 ± 0.17 μmol/g wet tissue/hr and the EC50 (rat soleus muscle; [insulin] 0 nM (nominal), nominal amylin concentrations, read-out: Amylin dose response: EC50, Mean ± log SE (converted)) was 12.2 ± 0.94 nM. The “Amylin dose response … Mean ± SEM” value (rat soleus muscle; [insulin] 0.21 nM (nominal)) was 1.26 ± 0.18 μmol/g wet tissue/hr, the EC50 (rat soleus muscle; [insulin] 0.21 nM (nominal), nominal amylin concentrations, read-out: Amylin dose response: EC50, Mean ± log SE (converted)) was 10.3 ± 0.48 nM and the “Amylin dose response … Mean ± SEM” value (rat soleus muscle; [insulin] 0.71 nM (nominal)) was 2.11 ± 0.18 μmol/g wet tissue/hr. The EC50 (rat soleus muscle; [insulin] 0.71 nM (nominal), nominal amylin concentrations, read-out: Amylin dose response: EC50, Mean ± log SE (converted)) was 8.24 ± 0.24 nM, the “Amylin dose response … Mean ± SEM” value (rat soleus muscle; [insulin] 2.1 nM (nominal)) was 2.94 ± 0.18 μmol/g wet tissue/hr and the EC50 (rat soleus muscle; [insulin] 2.1 nM (nominal), nominal amylin concentrations, read-out: Amylin dose response: EC50, Mean ± log SE (converted)) was 10.4 ± 0.16 nM. The “Amylin dose response … Mean ± SEM” value (rat soleus muscle; [insulin] 7.1 nM (nominal)) was 3.56 ± 0.19 μmol/g wet tissue/hr, the EC50 (rat soleus muscle; [insulin] 7.1 nM (nominal), nominal amylin concentrations, read-out: Amylin dose response: EC50, Mean ± log SE (converted)) was 8.69 ± 0.13 nM and the “Amylin dose response … Mean ± SEM” value (rat soleus muscle; [insulin] 71 nM (nominal)) was 4.07 ± 0.18 μmol/g wet tissue/hr. The EC50 (rat soleus muscle; [insulin] 71 nM (nominal), nominal amylin concentrations, read-out: Amylin dose response: EC50, Mean ± log SE (converted)) was 11.93 ± 0.11 nM, the “mode of action on the insulin response in soleus muscle” value (rat soleus muscle; from insulin/amylin dose response matrix) was “noncompetitive, functional antagonist to insulin” and the “liver glycogen versus insulin alone” value ([1]; amylin 3 μg/day plus insulin) was “did not measurably increase glycogen levels”. For the same molecule, the “liver glycogen restoration towards normal” value ([1]; amylin 300 μg/day plus insulin) was “did not measurably restore liver glycogen towards normal”, the “liver glycogen concentration versus normal animals” value ([1]; amylin 10, 30 and 100 μg per day plus insulin) was “not significantly different from that in normal animals” and the “liver glycogen versus insulin-only therapy” value ([1]; amylin 10, 30 and 100 μg/day s.c. for 5 days plus insulin) was “Significant increases over insulin-only therapy; also recorded: dose-dependent increase in liver glycogen concentration above that in rats replaced with insulin alone”. For the same molecule, the “restoration of liver glycogen” value ([1]; five consecutive daily subcutaneous injections, insulin-treated STZ diabetic rats) was “dose-dependently restored liver glycogen to normal levels” and the “effect on insulin-mediated suppression of liver glucose output” value (liver glucose output) was “reverses insulin-mediated suppression of liver glucose output”.
